Measured values from patent US9346811B2, “6,7-dihydro-pyrazolo[1,5-a]pyrazin-4-ylamine derivatives useful as inhibitors of beta-secretase (BACE)” (JANSSEN PHARMACEUTICA NV, priority 2011, dated 2016).

Columns and labels:
[1] = system: Aβ42 produced and secreted into the medium of human neuroblastoma SKNBE2 cells; assay: Cellular αlisa assay in SKNBE2 cells, Aβ42; format: cell-based; settings: SKNBE2 cells expressing hAPP695, 18 hours incubation; for IC50: Homo sapiens, SKNBE2, 18 h, read-out: Cellular αlisa assay in SKNBE2 cells Aβ42 pIC50 (converted)
Method: (§1) Cellular αlisa Assay in SKNBE2 Cells
(§2) In two αlisa assays the levels of Aβtotal and Aβ42 produced and secreted into the medium of human neuroblastoma SKNBE2 cells are quantified. The assay is based on the human neuroblastoma SKNBE2 expressing the wild type Amyloid Precursor Protein (hAPP695). The compounds are diluted and added to these cells, incubated for 18 hours and then measurements of Aβ42 and Aβtotal are taken. Aβtotal and Aβ42 are measured by sandwich αlisa. αlisa is a sandwich assay using biotinylated antibody AbN/25 attached to streptavidin coated beads and antibody Ab4G8 or cAb42/26 conjugated acceptor beads for the detection of Aβtotal and Aβ42 respectively. In the presence of Aβtotal or Aβ42, the beads come into close proximity. The excitation of the Donor beads provokes the release of singlet oxygen molecules that triggers a cascade of energy transfer in the Acceptor beads, resulting in light emission. Light emission is measured after 1 hour incubation (excitation at […] and emission at 615 nm).
(§3) A best-fit curve is fitted by a minimum sum of squares method to the plot of % Controlmin versus compound concentration.

brain levels of total Aβ = assay: In vivo efficacy: brain Aβtotal lowering (ELISA); set-up: species or system mouse
Excerpt: (§4) To determine whether acute administration of an Aβ42 peptide lowering agent would reduce Aβ peptide levels in vivo, non-transgenic rodents, e.g. mice or rats were used. Animals treated with the Aβ peptide lowering agent were examined and compared to those untreated or treated with vehicle and brain levels of soluble Aβ42 and total Aβ were quantitated by standard techniques, for example, using ELISA. Treatment periods varied from hours (h) to days and were adjusted based on the results of the Aβ42 lowering once a time course of onset of effect could be established.
(§5) A typical protocol for measuring Aβ42 lowering in vivo is shown but it is only one of many variations that could be used to optimize the levels of detectable Aβ. For example, Aβ peptide lowering compounds were formulated in 20% hydroxypropyl β cyclodextrin. The Aβ peptide lowering agents were administered as a single oral dose (p.o.) or a single subcutaneous dose (s.c.) to overnight fasted animals. After a certain time, usually 2 or 4 h (as indicated in Table 7), the animals were sacrificed and Aβ42 levels were analysed.
(§6) Blood was collected by decapitation and exsanguinations in EDTA-treated collection tubes. Blood was centrifuged at 1900 g for 10 minutes (min) at 4° C. and the plasma recovered and flash frozen for later analysis. The brain was removed from the cranium and hindbrain. The cerebellum was removed and the left and right hemisphere were separated. The left hemisphere was stored at −18° C. for quantitative analysis of test compound levels. The right hemisphere was rinsed with phosphate-buffered saline (PBS) buffer and immediately frozen on dry ice and stored at −80° C. until homogenization for biochemical assays.
(§7) Mouse brains from non-transgenic animals were resuspended in 8 volumes of 0.4% DEA (diethylamine)/50 mM NaCl containing protease inhibitors (Roche-11873580001 or 04693159001) per gram of tissue, e.g. for 0.158 g brain, add 1.264 ml of 0.4% DEA. All samples were homogenized in the FastPrep-24 system (MP Biomedicals) using lysing matrix D (MPBio #6913-100) at 6 m/s for 20 seconds. Homogenates were centrifuged at 221.300×g for 50 min. The resulting high speed supernatants were then transferred to fresh eppendorf tubes. Nine parts of supernatant were neutralized with 1 part 0.5 M Tris-HCl pH 6.8 and used to quantify Aβtotal and Aβ42.
(§8) To quantify the amount of Aβtotal and Aβ42 in the soluble fraction of the brain homogenates, Enzyme-Linked-Immunosorbent-Assays were used. Briefly, the standards (a dilution of synthetic Aβ1-40 and […], Bachem) were prepared in 1.5 ml Eppendorf tube in Ultraculture, with final concentrations ranging from 10000 to 0.3 pg/ml. The samples and standards were co-incubated with HRPO-labelled N-terminal antibody for Aβ42 detection and with the biotinylated mid-domain antibody 4G8 for Aβtotal detection. 50 μl of conjugate/sample or conjugate/standards mixtures were then added to the antibody-coated plate (the capture antibodies selectively recognize the C-terminal end of Aβ42, antibody JRF/cAβ42/26, for Aβ42 detection and the N-terminus of Aβ, antibody JRF/rAβ/2, for Aβtotal detection). The plate was allowed to incubate overnight at 4° C. in order to allow formation of the antibody-amyloid complex. Following this incubation and subsequent wash steps the ELISA for Aβ42 quantification was finished by addition of Quanta Blu fluorogenic peroxidase substrate according to the manufacturer's instructions (Pierce Corp., Rockford, Il.). A reading was performed after 10 to 15 min (excitation 320 nm/emission 420 nm).
For Aβtotal detection, a Streptavidine-Peroxidase-Conjugate was added, followed 60 min later by an additional wash step and addition of Quanta Blu fluorogenic peroxidase substrate according to the manufacturer's instructions (Pierce Corp., Rockford, Il.). A reading was performed after 10 to 15 min (excitation 320 nm/emission 420 nm).

[2] = system: brain levels of soluble Aβ42; assay: In vivo efficacy: brain Aβ42 lowering (ELISA); set-up: species or system mouse
Excerpt: as §4, §5, §6, §7, §8
In this model at least 20% Aβ42 lowering compared to untreated animals would be advantageous.

[3] = system: Aβtotal produced and secreted into the medium of human neuroblastoma SKNBE2 cells; assay: Cellular αlisa assay in SKNBE2 cells, Aβtotal; format: cell-based; settings: SKNBE2 cells expressing hAPP695, 18 hours incubation; for IC50: Homo sapiens, SKNBE2, 18 h, read-out: Cellular αlisa assay in SKNBE2 cells Aβtotal pIC50 (converted)
Method: as §1, §2, §3

[4] = target: recombinant BACE1 protein (Homo sapiens, UniProt P56817); assay: Biochemical FRET based assay; settings: recombinant BACE1 1 μg/ml, 120 min, pH 5.0; for IC50: read-out: Biochemical FRET based assay pIC50 (converted)
Chain of recombinant BACE1 protein (P56817 46-501): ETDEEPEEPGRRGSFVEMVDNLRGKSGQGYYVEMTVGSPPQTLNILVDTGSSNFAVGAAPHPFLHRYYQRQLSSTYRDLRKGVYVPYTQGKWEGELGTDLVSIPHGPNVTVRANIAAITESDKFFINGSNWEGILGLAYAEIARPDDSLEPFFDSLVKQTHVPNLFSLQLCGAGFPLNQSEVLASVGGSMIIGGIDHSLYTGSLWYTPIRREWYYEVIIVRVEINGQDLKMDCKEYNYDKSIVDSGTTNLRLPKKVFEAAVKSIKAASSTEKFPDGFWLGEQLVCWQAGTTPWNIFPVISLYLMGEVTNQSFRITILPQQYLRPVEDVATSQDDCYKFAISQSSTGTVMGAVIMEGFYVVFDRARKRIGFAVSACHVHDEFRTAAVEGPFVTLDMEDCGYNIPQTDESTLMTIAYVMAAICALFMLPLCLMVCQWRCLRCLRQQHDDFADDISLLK
Excerpt: Biochemical FRET Based Assay
This assay is a Fluorescence Resonance Energy Transfer Assay (FRET) based assay. The substrate for this assay is an APP derived 13 amino acids peptide that contains the ‘Swedish’ Lys-Met/Asn-Leu mutation of the amyloid precursor protein (APP) β-secretase cleavage site. This substrate also contains two fluorophores: (7-methoxycoumarin-4-yl)acetic acid (Mca) is a fluorescent donor with excitation wavelength at 320 nm and emission at 405 nm and 2,4-Dinitrophenyl (Dnp) is a proprietary quencher acceptor. […] Upon cleavage by BACE1, the fluorophore Mca is separated from the quenching group Dnp, restoring the full fluorescence yield of the donor. The increase in fluorescence is linearly related to the rate of proteolysis (Koike H et al. J. Biochem. 1999, 126, 235-242). Briefly in a 384-well format recombinant BACE1 protein in a final concentration of 1 μg/ml is incubated for 120 min at room temperature with 10 μm substrate in incubation buffer (40 mM Citrate buffer pH 5.0, 0.04% PEG, 4% DMSO) in the absence or presence of compound. Next the amount of proteolysis is directly measured by fluorescence measurement at T=0 and T=120 (excitation at 320 nm and emission at 405 nm).

[5] = 30 mg/kg p.o., 4 h. after administration
[6] = 30 mg/kg p.o., 2 h after administration
[7] = 10 mg/kg p.o., 4 h. after administration
[8] = 5 mg/kg p.o., 4 h. after administration
[9] = 100 mg/kg s.c., 4 h. after administration

Row | Cellular αlisa assay in SKNBE2 cells Aβ42 pIC50 [1] | Cellular αlisa assay in SKNBE2 cells Aβtotal pIC50 [3] | IC50 [4] [µM] | IC50 [1] [µM] | IC50 [3] [µM] | Structure (SMILES) | Aβtotal (% Ctrl)_Mean (brain levels of total Aβ; [5]) [% Ctrl] | Aβ42 (% Ctrl)_Mean [2, 5] [% Ctrl] | Aβtotal (% Ctrl)_Mean (brain levels of total Aβ; [7]) [% Ctrl] | Aβ42 (% Ctrl)_Mean [2, 7] [% Ctrl] | further results
1 | 7.76 | 7.84 | – | – | – | COc1cnc(C(=O)Nc2cccc(C3(C)Cn4nc(C(F)(F)F)cc4C(N)=N3)c2)cn1 (single isomer, unassigned) [Compound 32] | – | – | – | – | Aβtotal (% Ctrl)_Mean (brain levels of total Aβ; [6]): 58 % Ctrl; Aβ42 (% Ctrl)_Mean [2, 6]: 53 % Ctrl; Biochemical FRET based assay pIC50 [4]: 7.20
2 | – | – | 0.0692 | 0.00525 | 0.00631 | COc1cnc(C(=O)Nc2ccc(F)c([C@]3(C)Cn4nc(C(F)F)cc4C(N)=N3)c2)cn1 [Compound 28, (R)-5-methoxy-pyrazine-2-carboxylic acid [3-(4-amino-2-difluoromethyl-6-methyl-6,7-dihydro-pyrazolo[1,5-a]pyrazin-6-yl)-4-fluoro-phenyl]-amide] | – | – | 50 | 39 | –
3 | – | – | 0.0813 | 0.0162 | 0.017 | COc1cnc(C(=O)Nc2ccc(F)c([C@]3(C)Cn4nc(C)c(F)c4C(N)=N3)c2)cn1 [Compound 29, (R)-5-methoxy-pyrazine-2-carboxylic acid [3-(4-amino-3-fluoro-2,6-dimethyl-6,7-dihydro-pyrazolo[1,5-a]pyrazin-6-yl)-4-fluoro-phenyl]-amide] | – | – | 58 | 59 | –
4 | 8.09 | 8.14 | – | – | – | CC1(c2cc(NC(=O)c3ccc(F)cn3)ccc2F)Cn2ncc(F)c2C(N)=N1 (stereo not shown) [Compound 33] | – | – | – | – | Aβtotal (% Ctrl)_Mean (brain levels of total Aβ; [9]): 20 % Ctrl; Aβ42 (% Ctrl)_Mean [2, 9]: 49 % Ctrl; Biochemical FRET based assay pIC50 [4]: 7.19

The remaining lines, values behind:

Row | Structure (SMILES) | Cellular αlisa assay in SKNBE2 cells Aβ42 pIC50 [1] | Cellular αlisa assay in SKNBE2 cells Aβtotal pIC50 [3] | IC50 [4] [µM] | IC50 [1] [µM] | IC50 [3] [µM] | Aβtotal (% Ctrl)_Mean (brain levels of total Aβ; [5]) [% Ctrl] | Aβ42 (% Ctrl)_Mean [2, 5] [% Ctrl] | Aβtotal (% Ctrl)_Mean (brain levels of total Aβ; [7]) [% Ctrl] | Aβ42 (% Ctrl)_Mean [2, 7] [% Ctrl] | further results
5 | CC1(c2cccc(NC(=O)c3ccc(C#N)cn3)c2)Cn2nccc2C(N)=N1 (single isomer, unassigned) [Compound 7, (R*)-5-cyano-pyridine-2-carboxylic acid [3-(4-amino-6-methyl-6,7-dihydro-pyrazolo[1,5-a]pyrazin-6-yl)-phenyl]-amide] | 8.66 | 8.69 | – | – | – | 101 | 88 | – | – | –
6 | CC1(c2cccc(NC(=O)c3ncc(Cl)cc3Cl)c2)Cn2nc(C(F)(F)F)cc2C(N)=N1 (single isomer, unassigned) [Compound 11, (R*)-3,5-dichloro-pyridine-2-carboxylic acid [3-(4-amino-6-methyl-2-trifluoromethyl-6,7-dihydro-pyrazolo[1,5-a]pyrazin-6-yl)-phenyl]-amide] | 7.94 | 8.01 | 0.0282 | – | – | 84 | 89 | – | – | –
7 | COc1cnc(C(=O)Nc2ccc(F)c([C@]3(C)Cn4nc(C#N)cc4C(N)=N3)c2)cn1 [Compound 23, (R)-5-methoxy-pyrazine-2-carboxylic acid [3-(4-amino-2-cyano-6-methyl-6,7-dihydro-pyrazolo[1,5-a]pyrazin-6-yl)-4-fluoro-phenyl]-amide] | – | – | 0.0398 | 0.00178 | 0.00195 | – | – | 39 | 45 | –
8 | C[C@@]1(c2cc(NC(=O)c3ccc(F)cn3)ccc2F)Cn2nc(C#N)cc2C(N)=N1 [Compound 24, (R)-5-fluoro-pyridine-2-carboxylic acid [3-(4-amino-2-cyano-6-methyl-6,7-dihydro-pyrazolo[1,5-a]pyrazin-6-yl)-4-fluoro-phenyl]-amide] | – | – | 0.0324 | 0.00331 | 0.00389 | 31 | 16 | – | – | Aβtotal (% Ctrl)_Mean (brain levels of total Aβ; [8]): 59 % Ctrl; Aβ42 (% Ctrl)_Mean [2, 8]: 66 % Ctrl
9 | C[C@@]1(c2cc(NC(=O)c3ccc(F)cn3)ccc2F)Cn2nc(C(F)F)cc2C(N)=N1 [Compound 27, (R)-5-fluoro-pyridine-2-carboxylic acid [3-(4-amino-2-difluoromethyl-6-methyl-6,7-dihydro-pyrazolo[1,5-a]pyrazin-6-yl)-4-fluoro-phenyl]-amide] | – | – | 0.0603 | 0.00708 | 0.00676 | – | – | 61 | 55 | –
